Experimental data from US10869931B2, “Polyethylene glycol-modified angiogenesis inhibitor HM-1 and application thereof” (NANJING ANJI BIOLOGICAL TECHNOLOGY CO.,LTD, priority 2016, dated 2020).
Values joined by “and” are separate entries in the source; they are usually repeats but may differ in a detail not shown here. Equal entries are not always repeated. Where no end group is shown, it is not given here.

How the values were obtained:
sarcoma tumor cells = test: MTT proliferation inhibition, sarcoma cells; type: cell-based, human; set-up: concentration or dose not given beside the values; conditions: 48 h
Procedure, shortened: (§1)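 Tumour cells plated at 2×10^4 cells/mL, attached overnight, then exposed to dilutions of mPEG-HM-1 for 48 h at 37 °C, 5% CO2. MTT added 4 h, formazan dissolved in DMSO, absorbance 570/630 nm; growth inhibition = 1 − treated/untreated, three independent repeats, mean±SD.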

[1] = system: Ovarian cancer tumor cells; test: MTT proliferation inhibition, ovarian cancer cells; type: cell-based, human; set-up: concentration or dose not given beside the values; conditions: 48 h
Procedure, shortened: as §1

[2] = system: choroidal neovascularization in BN rats; test: Laser-induced choroidal neovascularization in BN rats (FFA); type: in vivo, rat
Procedure: 6-8 weeks old male BN rats were anesthetized with 846 compound anesthetic 0.5 mL/kg administered intraperitoneally. The eye drops of compound tropamide eyes were used 5 minutes before laser photocoagulation, and the pupils of both eyes were fully scattered. Fix animals, with the aid of −53.00 D contact lens, around the optic disc and along the same distance from the optic disc 2PD, the laser beam photocoagulation were performed to make a total of 8 photo-condensation spots, with laser wavelength of 647.1 nm, power of 350 mW, photocoagulation spot diameter and time were 50 μm and 0.05 s, respectively. Immediately after photocoagulation, fundus photography was performed. FFA, histopathology and transmission electron microscopy were performed at 3, 7, 14, 21, and 28 days after photocoagulation.
It was confirmed by fundus photography and FFA examination that the fluorescein leakage of photocoagulation peaked on the 21st day after photocoagulation, and histopathological examination was performed at the same time. […] A large number of neovascular vessels were seen, and red blood cells were visible in the lumen. Microscopically, capillary cells in the choroidal melanocytes were cohesively altered and endothelial cells aggregated.
Rats that were successfully modeled were randomly divided into groups of 5 rats each. They were labeled as negative control group, mPEG-SC-HM-1 treatment group, mPEG2-NHS-HM-1 treatment group, mPEG-ALD-HM-1 treatment group and mPEG-bALD-HM-1 treatment group, respectively. Saline, mPEG-HM-1 (see Table 53 for dosing) was administered intravitreally, once daily for 1 week. FFA examinations were performed 3 days, 7 days, 14 days, and 28 days after administration of the modified peptides.

mouse spleen lymphocytes = test: ConA-stimulated mouse spleen lymphocyte proliferation (MTT); type: cell-based; conditions: ConA 5 μg/mL, 48 h
Procedure, shortened: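 Spleen cells, red cells lysed with Tris-NH4Cl, plated at 5×10^6/mL in RPMI 1640 with 10% calf serum alongside blank, ConA and Dex (0.02 mg/mL) groups. After 48 h at 37° C., MTT added for 4 h, formazan dissolved in DMSO, OD read at 570 nm, 5 replicates.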

various tumor cells = test: MTT proliferation inhibition, overall statements on various tumor cells; type: cell-based, human; conditions: compared with the negative control
Procedure: The activity of mPEG-HM-1 to inhibit the growth of various tumor cells was examined by MTT assay. The tumor cells were cultured to a concentration of 90% or more in a 37° C., 5% CO2 incubator and collected by trypsinization. The cells were resuspended in the culture medium and counted under a microscope to adjust the cell concentration to 2×10^4 cells/mL, the cell suspension was inoculated into a 96-well plate at 100 μL/well and incubated overnight at 37° C. in a 5% CO2 incubator. mPEG-HM-1 was diluted with the culture solution to each predetermined concentration. Docetaxel is diluted to the final concentration with the culture medium. After the cells were fully attached, each dilution was added to a 96-well plate (100 μL/well). The mPEG-HM-1 dilution was added as a drug-administered group, and docetaxel was added as a positive control group, and a culture solution without any drug was used as a negative control group. Incubate for 48 h at 37° C. in a 5% CO2 incubator. 5 mg/mL of MTT was added to a 96-well plate at 20 μL per well, and incubation was continued for 4 hours. The medium was aspirated, dissolved in 150 μL of DMSO per well, and gently mixed by shaking for 10 min. The absorbance was measured at a measurement wavelength of 570 nm and a reference wavelength of 630 nm using a microplate reader, and the rate of growth inhibition (proliferation inhibition, PI) was calculated. The formula is as follows: PI (%)=1−administration group/negative group
The test was repeated 3 times independently, and the results obtained by the test were expressed as mean±SD, and the test results are shown in Table 15 to Table 18.

[3] = Day 3 after administration, 100 μg intravitreally once daily for 1 week (Table 53)
[4] = Day 3 after administration, 100 μg intravitreally once daily for 1 week (Table 53), total spots 290-296 by table
[5] = Day 7, 100 μg intravitreally once daily for 1 week (Table 53)
[6] = Day 7, 100 μg intravitreally once daily for 1 week (Table 53), total spots 182-188 by table
[7] = Day 14, 100 μg intravitreally once daily for 1 week (Table 53)
[8] = Day 14, 100 μg intravitreally once daily for 1 week (Table 53), total spots 132-138 by table
[9] = Day 28, 100 μg intravitreally once daily for 1 week (Table 53)
[10] = Day 28, 100 μg intravitreally once daily for 1 week (Table 53), total spots 67-71 by table
[11] = Day 3 after administration, 50 μg intravitreally once daily for 1 week (Table 53)
[12] = Day 3 after administration, 50 μg intravitreally once daily for 1 week (Table 53), total spots 290-296 by table
[13] = Day 7, 50 μg intravitreally once daily for 1 week (Table 53)
[14] = Day 7, 50 μg intravitreally once daily for 1 week (Table 53), total spots 182-188 by table
[15] = Day 14, 50 μg intravitreally once daily for 1 week (Table 53)
[16] = Day 14, 50 μg intravitreally once daily for 1 week (Table 53), total spots 132-138 by table
[17] = Day 28, 50 μg intravitreally once daily for 1 week (Table 53)
[18] = Day 28, 50 μg intravitreally once daily for 1 week (Table 53), total spots 67-71 by table

## mPEG2-NHS20k-Arg-Gly-Ala-Asp-Arg-Ala-Gly-Gly-Gly-Gly-Arg-Gly-Asp ({mPEG2‑NHS 20 kDa}-RGADRAGGGGRGD) [mPEG2-NHS20k-HM-1]
Sarcoma tumor cells
  rate of growth inhibition: 48.91 ± 10.57%
[1]
  rate of growth inhibition: 63.55 ± 19.60%
[2]; [3]
  CNV Incidence rate: 52.72%
[2]; [4]
  leakage Spots #: 155
[2]; [5]
  CNV Incidence rate: 52.20%
[2]; [6]
  leakage Spots #: 95
[2]; [7]
  CNV Incidence rate: 45.99%
[2]; [8]
  leakage Spots #: 63
[2]; [9]
  CNV Incidence rate: 42.65%
[2]; [10]
  leakage Spots #: 29
Mouse spleen lymphocytes; 20 μg/mL
  A570 nm/A630 nm: 0.6082 ± 0.0990
  Inhibition Rate of spleen lymphocyte proliferation: 12.16%
Mouse spleen lymphocytes; 40 μg/mL
  A570 nm/A630 nm: 0.4879 ± 0.1156
  Inhibition Rate of spleen lymphocyte proliferation: 29.53%
Mouse spleen lymphocytes; 80 μg/mL
  A570 nm/A630 nm: 0.4375 ± 0.1095
  Inhibition Rate of spleen lymphocyte proliferation: 36.82%
Various tumor cells
  inhibition of proliferation of various tumor cells (in words): had the best effect

## mPEG-ALD10k-Arg-Gly-Ala-Asp-Arg-Ala-Gly-Gly-Gly-Gly-Arg-Gly-Asp ({mPEG‑ALD 10 kDa}-RGADRAGGGGRGD) [mPEG-ALD10k-HM-1]
Sarcoma tumor cells
  rate of growth inhibition: 53.01 ± 11.42%
[1]
  rate of growth inhibition: 85.73 ± 22.17%
[2]; BN rats, 28 days after administration, intravitreal once daily for 1 week
  incidence of CNV: 39.44% and 39.13%
[2]; [11]
  CNV Incidence rate: 48.62%
[2]; [12]
  leakage Spots #: 141
[2]; [13]
  CNV Incidence rate: 46.15%
[2]; [14]
  leakage Spots #: 84
[2]; [15]
  CNV Incidence rate: 41.67%
[2]; [16]
  leakage Spots #: 55
[2]; [17]
  CNV Incidence rate: 39.44%
[2]; [18]
  leakage Spots #: 28
Mouse spleen lymphocytes; 10 μg/mL
  A570 nm/A630 nm: 0.6116 ± 0.1046
  Inhibition Rate of spleen lymphocyte proliferation: 10.96%
Mouse spleen lymphocytes; 20 μg/mL
  A570 nm/A630 nm: 0.5352 ± 0.1022
  Inhibition Rate of spleen lymphocyte proliferation: 22.08%
Mouse spleen lymphocytes; 40 μg/mL
  A570 nm/A630 nm: 0.4651 ± 0.1086
  Inhibition Rate of spleen lymphocyte proliferation: 32.29%
Various tumor cells
  inhibition of proliferation of various tumor cells (in words): had the best effect

## mPEG-SC20k-Arg-Gly-Ala-Asp-Arg-Ala-Gly-Gly-Gly-Gly-Arg-Gly-Asp ({mPEG‑SC 20 kDa}-RGADRAGGGGRGD) [mPEG-SC20k-HM-1]
Sarcoma tumor cells
  rate of growth inhibition: 48.93 ± 10.53%
[1]
  rate of growth inhibition: 70.94 ± 20.65%
[2]; [3]
  CNV Incidence rate: 51.35%
[2]; [4]
  leakage Spots #: 152
[2]; [5]
  CNV Incidence rate: 48.94%
[2]; [6]
  leakage Spots #: 92
[2]; [7]
  CNV Incidence rate: 45.93%
[2]; [8]
  leakage Spots #: 62
[2]; [9]
  CNV Incidence rate: 41.79%
[2]; [10]
  leakage Spots #: 28
Mouse spleen lymphocytes; 20 μg/mL
  A570 nm/A630 nm: 0.6213 ± 0.0996
  Inhibition Rate of spleen lymphocyte proliferation: 9.91%
Mouse spleen lymphocytes; 40 μg/mL
  A570 nm/A630 nm: 0.5444 ± 0.1120
  Inhibition Rate of spleen lymphocyte proliferation: 21.06%
Mouse spleen lymphocytes; 80 μg/mL
  A570 nm/A630 nm: 0.4741 ± 0.1270
  Inhibition Rate of spleen lymphocyte proliferation: 31.25%
Various tumor cells
  inhibition of proliferation of various tumor cells (in words): had the best effect

## mPEG-bALD10k-Arg-Gly-Ala-Asp-Arg-Ala-Gly-Gly-Gly-Gly-Arg-Gly-Asp ({mPEG‑bALD 10 kDa}-RGADRAGGGGRGD) [mPEG-bALD10k-HM-1]
Sarcoma tumor cells
  rate of growth inhibition: 52.01 ± 12.32%
[1]
  rate of growth inhibition: 80.35 ± 20.53%
[2]; [11]
  CNV Incidence rate: 48.46%
[2]; [12]
  leakage Spots #: 142
[2]; [13]
  CNV Incidence rate: 46.49%
[2]; [14]
  leakage Spots #: 86
[2]; [15]
  CNV Incidence rate: 42.03%
[2]; [16]
  leakage Spots #: 58
[2]; [17]
  CNV Incidence rate: 39.13%
[2]; [18]
  leakage Spots #: 27
Mouse spleen lymphocytes; 10 μg/mL
  A570 nm/A630 nm: 0.6179 ± 0.1049
  Inhibition Rate of spleen lymphocyte proliferation: 10.94%
Mouse spleen lymphocytes; 20 μg/mL
  A570 nm/A630 nm: 0.5469 ± 0.1122
  Inhibition Rate of spleen lymphocyte proliferation: 21.18%
Mouse spleen lymphocytes; 40 μg/mL
  A570 nm/A630 nm: 0.4666 ± 0.1040
  Inhibition Rate of spleen lymphocyte proliferation: 32.75%
Various tumor cells
  inhibition of proliferation of various tumor cells (in words): had the best effect
